This is an account of results in article PMC5589098 (PLoS ONE, 2017).

The IC50 is the midpoint of a concentration-inhibition curve. In general, inhibition refers to the change of the read-out against control, counted positive when it falls.

In data set [1] the target is human (h) Cav2.2 channels in SH-SY5Y cells (Homo sapiens, UniProt Q00975). As to the kind of experiment: cell-based.
Another data set addresses hCav1.3 (Homo sapiens, UniProt Q01668). As to the kind of experiment: cell-based.
The next data set deals with hCav3.1 (Homo sapiens, UniProt O43497). As to the kind of experiment: cell-based.
The next data set concerns the target hNav1.1 (Homo sapiens, UniProt P35498). As to the kind of experiment: cell-based.
A further data set has as its target hNav1.2 (Homo sapiens, UniProt Q99250). As to the kind of experiment: cell-based.
A further data set has as its target hNav1.3 (Homo sapiens, UniProt Q9NY46). As to the kind of experiment: cell-based.
The next data set has as its target hNav1.5 (Homo sapiens, UniProt Q14524). As to the kind of experiment: cell-based. Type of data set: cell-based.
The target of a further data set is hNav1.6 (Homo sapiens, UniProt Q9UQD0). As to the kind of experiment: cell-based. Type of data set: cell-based.
Data set [2] concerns the target T1, hNav1.7 (Homo sapiens, UniProt Q15858). As to the kind of experiment: cell-based.
Another data set concerns the target hNav1.8 (Homo sapiens, UniProt Q9Y5Y9). As to the kind of experiment: cell-based.
In another data set the test system is C57BL/6J mice. The note with it: mouse, in vivo.
Data set [3] deals with rat (r) Cav2.2 (Cav α1b + Cav β1b + Cav α2δ) (Rattus norvegicus, UniProt Q02294). As to the kind of experiment: cell-based.
The next data set addresses hNav1.4 (Homo sapiens, UniProt P35499). As to the kind of experiment: cell-based. Type of data set: cell-based.
Data set [4] concerns the target T1, hNav1.7. As to the kind of experiment: cell-based. The source holds these as a separate data set.
The subject of data set [5] is adult sheep blowflies (Lucilia cuprina). The note with it: in vivo.
The test system of data set [6] is Nav1.7-mediated pain in C57BL/6J mice. Conditions: mouse, in vivo.

Read-outs that look alike come from different tables or passages of the source. Where a SMILES comes first, the peptide text is derived from it. Bridges are numbered along the chain shown (N, C = ends).

hCav1.3, sequence (Q01668 whole entry): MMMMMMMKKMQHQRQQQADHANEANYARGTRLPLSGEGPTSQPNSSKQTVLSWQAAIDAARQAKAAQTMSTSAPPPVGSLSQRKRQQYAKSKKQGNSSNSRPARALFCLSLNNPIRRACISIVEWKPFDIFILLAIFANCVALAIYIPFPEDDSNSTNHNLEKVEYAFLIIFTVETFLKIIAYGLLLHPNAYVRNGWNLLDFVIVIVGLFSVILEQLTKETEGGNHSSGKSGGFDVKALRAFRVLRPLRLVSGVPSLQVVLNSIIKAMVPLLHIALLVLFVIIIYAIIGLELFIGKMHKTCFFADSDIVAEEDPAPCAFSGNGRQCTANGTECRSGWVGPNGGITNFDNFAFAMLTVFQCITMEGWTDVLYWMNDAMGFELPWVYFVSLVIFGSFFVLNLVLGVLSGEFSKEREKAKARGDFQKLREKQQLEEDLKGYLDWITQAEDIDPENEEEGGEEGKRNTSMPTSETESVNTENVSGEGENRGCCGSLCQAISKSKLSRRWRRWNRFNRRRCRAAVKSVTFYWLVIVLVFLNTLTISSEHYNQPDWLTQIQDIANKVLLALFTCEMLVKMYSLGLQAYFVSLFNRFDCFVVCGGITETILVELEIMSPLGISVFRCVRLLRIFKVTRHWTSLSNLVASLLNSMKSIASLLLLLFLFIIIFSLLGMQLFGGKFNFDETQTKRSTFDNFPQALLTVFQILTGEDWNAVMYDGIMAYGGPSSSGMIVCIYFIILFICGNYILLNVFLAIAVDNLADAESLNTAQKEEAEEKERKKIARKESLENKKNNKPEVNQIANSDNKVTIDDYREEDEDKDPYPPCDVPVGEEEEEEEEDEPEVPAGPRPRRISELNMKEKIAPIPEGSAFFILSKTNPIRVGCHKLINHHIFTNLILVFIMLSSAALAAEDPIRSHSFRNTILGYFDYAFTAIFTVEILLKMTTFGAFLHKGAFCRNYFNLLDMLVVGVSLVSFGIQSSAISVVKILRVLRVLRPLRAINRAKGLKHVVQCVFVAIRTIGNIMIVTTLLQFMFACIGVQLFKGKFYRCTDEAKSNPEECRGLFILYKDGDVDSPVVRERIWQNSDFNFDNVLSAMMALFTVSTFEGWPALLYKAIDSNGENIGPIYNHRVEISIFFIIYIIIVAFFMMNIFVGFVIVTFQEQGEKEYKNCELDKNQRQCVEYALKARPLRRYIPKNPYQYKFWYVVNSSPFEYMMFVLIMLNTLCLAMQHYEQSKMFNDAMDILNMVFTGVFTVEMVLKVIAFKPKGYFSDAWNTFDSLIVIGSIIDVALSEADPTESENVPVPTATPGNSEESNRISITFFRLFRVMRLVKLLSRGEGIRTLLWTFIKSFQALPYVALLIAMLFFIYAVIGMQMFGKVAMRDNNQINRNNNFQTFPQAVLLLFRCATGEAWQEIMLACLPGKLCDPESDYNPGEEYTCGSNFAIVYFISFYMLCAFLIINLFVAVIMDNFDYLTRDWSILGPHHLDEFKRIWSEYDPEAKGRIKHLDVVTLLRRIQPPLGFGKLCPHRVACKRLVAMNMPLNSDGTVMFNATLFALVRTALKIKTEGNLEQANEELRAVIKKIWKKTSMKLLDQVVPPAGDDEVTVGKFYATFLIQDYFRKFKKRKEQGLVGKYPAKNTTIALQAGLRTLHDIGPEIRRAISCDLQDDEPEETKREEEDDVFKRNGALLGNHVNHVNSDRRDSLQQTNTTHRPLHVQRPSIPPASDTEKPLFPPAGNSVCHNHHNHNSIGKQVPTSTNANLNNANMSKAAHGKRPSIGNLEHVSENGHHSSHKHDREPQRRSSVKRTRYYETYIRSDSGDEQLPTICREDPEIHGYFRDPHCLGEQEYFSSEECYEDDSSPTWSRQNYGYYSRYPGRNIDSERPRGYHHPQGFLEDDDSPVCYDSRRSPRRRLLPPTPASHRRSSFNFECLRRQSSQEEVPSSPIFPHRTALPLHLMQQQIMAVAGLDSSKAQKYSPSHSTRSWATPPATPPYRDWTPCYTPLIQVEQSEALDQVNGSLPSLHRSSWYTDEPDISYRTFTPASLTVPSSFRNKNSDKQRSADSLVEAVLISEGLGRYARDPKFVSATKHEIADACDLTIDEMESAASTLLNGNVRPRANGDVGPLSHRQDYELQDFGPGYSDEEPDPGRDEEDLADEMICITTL
human (h) Cav2.2 channels in SH-SY5Y cells, sequence (Q00975 whole entry): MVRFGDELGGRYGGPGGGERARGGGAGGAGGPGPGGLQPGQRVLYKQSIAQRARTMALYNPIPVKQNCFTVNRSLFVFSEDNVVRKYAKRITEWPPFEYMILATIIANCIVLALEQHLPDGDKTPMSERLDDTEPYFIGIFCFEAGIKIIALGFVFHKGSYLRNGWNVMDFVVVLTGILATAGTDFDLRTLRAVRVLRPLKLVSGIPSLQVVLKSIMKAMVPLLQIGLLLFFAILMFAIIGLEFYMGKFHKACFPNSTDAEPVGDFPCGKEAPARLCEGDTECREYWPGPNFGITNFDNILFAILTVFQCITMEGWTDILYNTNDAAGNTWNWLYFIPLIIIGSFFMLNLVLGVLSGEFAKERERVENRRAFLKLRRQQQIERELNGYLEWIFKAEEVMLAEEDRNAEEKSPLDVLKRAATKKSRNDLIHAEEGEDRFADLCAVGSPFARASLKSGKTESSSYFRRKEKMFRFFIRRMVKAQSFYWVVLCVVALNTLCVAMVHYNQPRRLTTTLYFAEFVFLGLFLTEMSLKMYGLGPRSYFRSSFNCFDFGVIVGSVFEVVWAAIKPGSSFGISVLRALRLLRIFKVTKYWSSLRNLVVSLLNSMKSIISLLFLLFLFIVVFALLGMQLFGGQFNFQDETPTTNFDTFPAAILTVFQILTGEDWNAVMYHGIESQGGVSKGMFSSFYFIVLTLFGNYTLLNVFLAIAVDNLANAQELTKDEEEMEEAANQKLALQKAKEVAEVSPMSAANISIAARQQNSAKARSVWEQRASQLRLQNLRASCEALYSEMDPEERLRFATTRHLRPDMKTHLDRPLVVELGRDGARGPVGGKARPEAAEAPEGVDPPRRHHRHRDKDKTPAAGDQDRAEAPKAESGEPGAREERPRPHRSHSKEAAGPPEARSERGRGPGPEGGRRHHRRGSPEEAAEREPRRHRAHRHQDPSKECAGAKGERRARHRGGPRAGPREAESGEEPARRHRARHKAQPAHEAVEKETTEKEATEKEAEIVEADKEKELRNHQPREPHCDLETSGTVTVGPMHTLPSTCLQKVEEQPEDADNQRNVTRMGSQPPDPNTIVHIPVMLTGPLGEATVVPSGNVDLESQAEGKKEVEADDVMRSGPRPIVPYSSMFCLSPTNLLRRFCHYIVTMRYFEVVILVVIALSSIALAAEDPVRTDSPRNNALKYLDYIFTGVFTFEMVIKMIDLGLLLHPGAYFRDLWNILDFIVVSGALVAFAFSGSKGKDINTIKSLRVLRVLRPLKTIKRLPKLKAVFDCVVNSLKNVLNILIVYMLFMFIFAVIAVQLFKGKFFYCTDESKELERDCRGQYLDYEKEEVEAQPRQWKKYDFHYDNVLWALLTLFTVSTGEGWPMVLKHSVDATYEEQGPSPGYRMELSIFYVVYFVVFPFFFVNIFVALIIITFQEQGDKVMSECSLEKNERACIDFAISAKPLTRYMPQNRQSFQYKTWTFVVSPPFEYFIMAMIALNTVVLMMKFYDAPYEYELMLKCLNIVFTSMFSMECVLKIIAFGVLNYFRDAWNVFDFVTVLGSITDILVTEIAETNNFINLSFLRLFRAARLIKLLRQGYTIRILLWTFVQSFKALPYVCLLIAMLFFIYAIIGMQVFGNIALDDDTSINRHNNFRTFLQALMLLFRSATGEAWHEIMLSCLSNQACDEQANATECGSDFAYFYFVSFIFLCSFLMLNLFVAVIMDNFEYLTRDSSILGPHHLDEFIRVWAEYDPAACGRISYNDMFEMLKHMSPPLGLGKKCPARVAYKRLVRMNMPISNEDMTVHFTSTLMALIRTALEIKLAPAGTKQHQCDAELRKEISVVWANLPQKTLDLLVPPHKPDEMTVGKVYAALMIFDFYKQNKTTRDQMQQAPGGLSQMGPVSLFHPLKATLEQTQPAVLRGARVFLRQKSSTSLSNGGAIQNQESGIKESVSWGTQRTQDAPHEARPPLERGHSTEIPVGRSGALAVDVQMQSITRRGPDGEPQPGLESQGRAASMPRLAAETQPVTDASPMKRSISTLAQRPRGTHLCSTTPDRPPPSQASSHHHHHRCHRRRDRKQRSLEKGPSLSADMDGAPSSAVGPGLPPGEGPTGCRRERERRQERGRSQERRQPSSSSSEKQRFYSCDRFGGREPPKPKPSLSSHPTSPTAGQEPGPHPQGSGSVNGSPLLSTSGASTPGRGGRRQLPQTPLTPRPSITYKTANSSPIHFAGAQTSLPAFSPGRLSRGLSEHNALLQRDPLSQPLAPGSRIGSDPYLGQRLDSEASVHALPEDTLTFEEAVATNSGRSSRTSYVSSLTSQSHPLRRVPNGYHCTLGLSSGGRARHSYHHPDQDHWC

With `CC(C)C[C@H](NC(=O)[C@H](CC(=O)O)NC(=O)[C@H](Cc1ccc(O)cc1)NC(=O)[C@H](CCCCN)NC(=O)[C@@H]1CSSC[C@@H]2NC(=O)[C@H](CCCCN)NC(=O)[C@H](CC(=O)O)NC(=O)[C@H](CC(N)=O)NC(=O)[C@H](CCCCN)NC(=O)[C@@H]3CCCN3C(=O)[C@H](CC(=O)O)NC(=O)[C@@H]3CSSC[C@H](NC(=O)[C@H]([C@@H](C)O)NC(=O)[C@H](Cc4ccc(O)cc4)NC(=O)[C@H](CC(N)=O)NC(=O)[C@H](CCCCN)NC(=O)[C@H](CSSC[C@H](NC(=O)[C@@H](N)CC(=O)O)C(=O)N[C@@H](CC(C)C)C(=O)NCC(=O)N[C@@H](Cc4c[nH]c5ccccc45)C(=O)N[C@@H](Cc4ccccc4)C(=O)N[C@@H](CCCCN)C(=O)N[C@@H](CO)C(=O)N3)NC2=O)C(=O)N[C@@H](CO)C(=O)N[C@@H](CCCNC(=N)N)C(=O)N[C@@H](CCCNC(=N)N)C(=O)N[C@@H](CC(=O)O)C(=O)N[C@@H](CCCNC(=N)N)C(=O)N[C@@H](Cc2c[nH]c3ccccc23)C(=O)N1)C(N)=O` [Cm1a] (H-DCLGWFKSCDPKNDKCCKNYTCSRRDRWCKYDL-NH2; disulfide 2-17, 9-22, 16-29), the IC50 in data set [1] is 400 ± 200 nM; on hNav1.1 it was 1060 ± 320 nM; at hNav1.2 (read-out: IC50 at Nav1.2), 70 nM; on hNav1.3 it was more than 10 µM; against hNav1.5, more than 10 µM; against hNav1.6 it was more than 10 µM. In addition, the IC50 against hNav1.7 [2] is 5.12 ± 2.85 µM; at hNav1.8, more than 10 µM. Further, the “activity at Cav1.3” value on hCav1.3 is “inactive”. Further, the “activity at Cav3.1” value at hCav3.1 was “inactive”. In addition, in the data set with C57BL/6J mice, the side effects result was “did not produce any apparent side effects”.
`CC(C)C[C@H](NC(=O)[C@H](CC(=O)O)NC(=O)[C@H](Cc1ccc(O)cc1)NC(=O)[C@H](CCCCN)NC(=O)[C@@H]1CSSC[C@@H]2NC(=O)[C@H](CCCCN)NC(=O)[C@H](CC(=O)O)NC(=O)[C@H](CC(N)=O)NC(=O)[C@H](CCCCN)NC(=O)[C@@H]3CCCN3C(=O)[C@H](CC(=O)O)NC(=O)[C@@H]3CSSC[C@H](NC(=O)[C@H](CO)NC(=O)[C@H](Cc4ccc(O)cc4)NC(=O)[C@H](CC(N)=O)NC(=O)[C@H](CCCCN)NC(=O)[C@H](CSSC[C@H](NC(=O)[C@@H](N)CC(=O)O)C(=O)N[C@@H](CC(C)C)C(=O)NCC(=O)N[C@@H](Cc4c[nH]c5ccccc45)C(=O)N[C@@H](Cc4ccccc4)C(=O)N[C@@H](CCCCN)C(=O)N[C@@H](CO)C(=O)N3)NC2=O)C(=O)N[C@@H](CO)C(=O)N[C@@H](CCCNC(=N)N)C(=O)N[C@@H](CCCNC(=N)N)C(=O)N[C@@H](CC(=O)O)C(=O)N[C@@H](CCCNC(=N)N)C(=O)N[C@@H](Cc2c[nH]c3ccccc23)C(=O)N1)C(N)=O` [Cd1a] (H-DCLGWFKSCDPKNDKCCKNYSCSRRDRWCKYDL-NH2; disulfide 2-17, 9-22, 16-29): the IC50 in data set [1] is 2600 nM; against hCav1.3 it was more than 30 µM; at hCav3.1 it was more than 30 µM; in data set [3], 3 µM; against hNav1.1 it was 2180 ± 690 nM; on hNav1.2 it was 130 ± 40 nM. In addition, the IC50 against hNav1.3 is more than 30 µM; at hNav1.4 it was more than 30 µM; against hNav1.5, more than 30 µM; against hNav1.6, more than 30 µM; against hNav1.7 [2] it was 3.34 ± 1.56 µM; at hNav1.8, 6.92 ± 3.44 µM. For the same compound, on hNav1.7 [4] (n = 10, read-out: IC50 at hNav1.7 (peak current)), the IC50 worked out at 16 nM. Besides, the “activity at Cav1.3” value on hCav1.3 is “inactive”. Further, the “activity at Cav3.1” value on hCav3.1 is “inactive”. The inhibition at 3 µM in data set [3] (TS/A, 3 μM, n = 9, read-out: inhibition of rCav2.2 currents) is approximately 50%. Further, the “IC50 at Nav1.4” value on hNav1.4 is “inactive”. Moreover, on hNav1.5, the “IC50 at Nav1.5” value is “inactive”. Further, the “IC50 at Nav1.6” value at hNav1.6 was “inactive”. Further, the “enhanced recovery from inhibition by strong positive-depolarising pulse” value on hNav1.7 [4] was ~ 70%. In addition, in the data set on C57BL/6J mice, the “ataxia index (number of foot slips/meters travelled)” value is “no significant effect”. Besides, the side effects entry in the data set on C57BL/6J mice is on record as “did not produce any apparent side effects”. In addition, the “paralysis or lethality at 24 h” value in data set [5] is “No signs of paralysis or lethality”. The recovery from paralysis entry in data set [5] was “all flies fully recovered”.
On to `NC1=N[C@H](O)[C@H]2[C@H]3O[C@]4(O)O[C@@H]([C@@H](O)[C@@]2(N1)[C@@H]4O)[C@]3(O)CO` [TTX, tetrodotoxin], for which the “reversal of OD1-evoked pain behaviours” value in data set [6] is recorded as “fully reversed”. Moreover, in the data set with C57BL/6J mice, the “ataxia index (number of foot slips/meters travelled)” value is on record as “significantly increased the ataxia index (*p < 0.05)”.
On to `CC(C)C[C@H](NC(=O)[C@H](Cc1ccc(O)cc1)NC(=O)[C@H](Cc1ccc(O)cc1)NC(=O)[C@H](CCCCN)NC(=O)[C@@H]1CSSC[C@@H]2NC(=O)[C@H](CCCCN)NC(=O)[C@H](CC(=O)O)NC(=O)[C@H](CC(N)=O)NC(=O)[C@H](CCCCN)NC(=O)[C@@H]3CCCN3C(=O)[C@H](CC(=O)O)NC(=O)[C@@H]3CSSC[C@H](NC(=O)[C@H]([C@@H](C)O)NC(=O)[C@H](Cc4ccc(O)cc4)NC(=O)[C@H](CC(N)=O)NC(=O)[C@H](CCCCN)NC(=O)[C@H](CSSC[C@H](NC(=O)[C@@H](N)CC(=O)O)C(=O)N[C@@H](CC(C)C)C(=O)NCC(=O)N[C@@H](Cc4c[nH]c5ccccc45)C(=O)N[C@@H](Cc4ccccc4)C(=O)N[C@@H](CCCCN)C(=O)N[C@@H](CO)C(=O)N3)NC2=O)C(=O)N[C@@H](CO)C(=O)N[C@@H](CCCNC(=N)N)C(=O)N[C@@H](CCCNC(=N)N)C(=O)N[C@@H](CC(=O)O)C(=O)N[C@@H](CCCNC(=N)N)C(=O)N[C@@H](Cc2c[nH]c3ccccc23)C(=O)N1)C(N)=O` [Cm1b] (H-DCLGWFKSCDPKNDKCCKNYTCSRRDRWCKYYL-NH2; disulfide 2-17, 9-22, 16-29), for which the IC50 was 1100 ± 600 nM in data set [1]; 170 ± 110 nM at hNav1.1; 80 ± 20 nM against hNav1.2; 5.57 ± 0.04 µM against hNav1.3; more than 10 µM against hNav1.5; 3.99 ± 1.6 µM against hNav1.6. Besides, the IC50 on hNav1.7 [2] was 0.23 ± 0.13 µM; against hNav1.8 it was more than 10 µM. In addition, the “activity at Cav1.3” value on hCav1.3 is “inactive”. Further, on hCav3.1, the “activity at Cav3.1” value is “inactive”. Besides, in the data set on C57BL/6J mice, the side effects entry is listed as “did not produce any apparent side effects”.
